Results reported in US11186577B2, “Vasopressin receptor antagonists and products and methods related thereto” (BlackThorn Therapeutics, Inc., priority 2017, dated 2021).

What was measured:
[1] = target: human Arginine Vasopressin Receptor 1b (AVPR1b) (Homo sapiens (Human), UniProt P47901); experiment: Vasopressin V1B receptor antagonist assay (AVP-evoked calcium, FLIPR, CHO-AVPR1b cells); format: cell-based
Summary of the method: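 CHO cells expressing human AVPR1b, loaded with Calcium-6 dye, were preincubated with compound for 15 min at 37 °C, then challenged with AVP at its daily-determined EC80. Calcium fluorescence was followed for 3 min on FLIPR; 10-point, 1:3 concentration curves gave antagonism as reduced AVP response.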

[2] = target: human Arginine Vasopressin Receptor V2 (AVPR2) (Homo sapiens (Human), UniProt P30518); experiment: Vasopressin V2 receptor antagonist assay (cAMP TR-FRET, 1321N1 cells); format: cell-based
Sequence of human Arginine Vasopressin Receptor V2 (AVPR2) (P30518 whole entry): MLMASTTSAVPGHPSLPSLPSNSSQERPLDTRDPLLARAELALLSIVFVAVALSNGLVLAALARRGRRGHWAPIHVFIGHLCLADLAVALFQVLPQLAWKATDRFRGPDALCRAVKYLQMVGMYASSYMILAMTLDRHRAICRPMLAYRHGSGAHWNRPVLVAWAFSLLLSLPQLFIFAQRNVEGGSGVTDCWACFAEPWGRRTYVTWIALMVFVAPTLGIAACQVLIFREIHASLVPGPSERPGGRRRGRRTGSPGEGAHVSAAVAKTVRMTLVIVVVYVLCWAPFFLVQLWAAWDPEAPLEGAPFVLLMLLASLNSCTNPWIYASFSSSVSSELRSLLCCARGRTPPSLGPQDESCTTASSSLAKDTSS

Sequence of human Arginine Vasopressin Receptor 1b (AVPR1b) (P47901 whole entry): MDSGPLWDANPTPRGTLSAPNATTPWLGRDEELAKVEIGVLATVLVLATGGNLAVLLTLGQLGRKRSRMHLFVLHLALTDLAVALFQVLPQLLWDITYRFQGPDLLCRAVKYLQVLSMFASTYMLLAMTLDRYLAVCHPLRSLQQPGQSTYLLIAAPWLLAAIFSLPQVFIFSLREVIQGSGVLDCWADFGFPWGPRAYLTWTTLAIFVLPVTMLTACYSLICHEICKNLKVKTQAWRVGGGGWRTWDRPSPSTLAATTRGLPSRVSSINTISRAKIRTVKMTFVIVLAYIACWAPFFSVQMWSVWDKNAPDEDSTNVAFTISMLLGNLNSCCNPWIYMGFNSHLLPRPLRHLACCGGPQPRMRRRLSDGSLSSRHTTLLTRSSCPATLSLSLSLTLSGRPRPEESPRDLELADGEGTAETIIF

SMILES	IC50 [1]	IC50 [2]
CC1c2nnc(C3CC4(C3)CN(c3ncccn3)C4)n2-c2ccc(Cl)cc2CN1C(=O)OC1CC1 (single isomer, unassigned) [Cpd 171A]	> 1 µM	> 1 µM
O=C(N1Cc2cc(Cl)ccc2-n2c(nnc2C2CC3(C2)CN(c2cnccn2)C3)C1)C1(F)CC1 [compound 81]	> 1 µM	> 1 µM
COC(=O)N1Cc2cc(Cl)ccc2-n2c(C3CC4(C3)CN(c3ccc(F)cn3)C4)nnc2C1C (single isomer, unassigned) [Cpd 142B]	> 1 µM	> 1 µM
O=C(N1Cc2cc(Cl)ccc2-c2c(C3CC4(C3)CN(c3cccnn3)C4)noc2C1)C(F)(F)F [compound 105]	> 1 µM	> 1 µM
CC1c2nnc(C3CC4(C3)CN(c3cnccn3)C4)n2-c2ccc(Cl)cc2CN1C(=O)C1(F)CC1 (stereo not shown) [compound 177]	> 1 µM	> 1 µM
CC1c2nnc(C3CC4(C3)CN(c3ccc(F)cn3)C4)n2-c2ccc(Cl)cc2CN1C(=O)OC1CC1 (single isomer, unassigned) [Cpd 191A]	> 1 µM	> 1 µM
CCN1Cc2cc(Cl)ccc2-n2c(nnc2C2CC3(C2)CN(c2ccc(F)cn2)C3)C1 [compound 49]	> 1 µM	0.1 to 0.5 µM
CN1Cc2cc(Cl)ccc2-n2c(nnc2C2CC3(C2)CN(c2ccc(F)cn2)C3)C1 [compound 1, 8-chloro-1-(2-(5-fluoropyridin-2-yl)-2-azaspiro[3.3]heptan-6-yl)-5-methyl-5,6-dihydro-4H-benzo[f][1,2,4]triazolo[4,3-a][1,4]diazepine]	> 1 µM	> 1 µM
CC1c2nnc(C3CC4(C3)CN(c3ccccn3)C4)n2-c2ccc(Cl)cc2CN1C(=O)C1(F)CC1 (single isomer, unassigned) [Cpd 181A]	> 1 µM	0.1 to 0.5 µM
CC(C)C(=O)N1Cc2cc(Cl)ccc2-n2c(nnc2C2CC3(C2)CN(c2ccc(F)cn2)C3)C1 [compound 63]	> 1 µM	0.5 to 1 µM
CN1Cc2cc(Cl)ccc2-n2c(nnc2C2CC3(C2)CN(c2cccc(F)n2)C3)C1 [compound 8]	> 1 µM	> 1 µM
CC1c2nnc(C3CC4(C3)CN(c3ccc(F)cn3)C4)n2-c2ccc(Cl)cc2CN1C(=O)C(C)(C)F (single isomer, unassigned) [Cpd 178A]	> 1 µM	0.1 to 0.5 µM
CC1c2nnc(C3CC4(C3)CN(c3ccc(F)cn3)C4)n2-c2ccc(Cl)cc2CN1C(=O)C1(F)CC1 (stereo not shown) [compound 174]	> 1 µM	> 1 µM
COC(=O)N1Cc2cc(Cl)ccc2-n2c(nnc2C2CC3(C2)CN(c2ccc(F)cn2)C3)C1 [compound 61]	> 1 µM	0.1 to 0.5 µM
COC(=O)N1Cc2cc(Cl)ccc2-n2c(C3CC4(C3)CN(c3ccc(F)cn3)C4)nnc2C1C (single isomer, unassigned) [142A]	> 1 µM	> 1 µM
CCOC(=O)N1Cc2cc(Cl)ccc2-n2c(C3CC4(C3)CN(c3ccc(F)cn3)C4)nnc2C1C (single isomer, unassigned) [Cpd 169A]	> 1 µM	> 1 µM
COCCN1Cc2cc(Cl)ccc2-n2c(nnc2C2CC3(C2)CN(c2ccccn2)C3)C1 [compound 39, 8-chloro-5-(2-methoxyethyl)-1-(2-(pyridin-2-yl)-2-azaspiro[3.3]heptan-6-yl)-5,6-dihydro-4H-benzo[f][1,2,4]triazolo[4,3-a][1,4]diazepine]	> 1 µM	> 1 µM
Clc1ccc2c(c1)CN(C1COC1)Cc1nnc(C3CC4(C3)CN(c3ccccn3)C4)n1-2 [compound 57, 8-chloro-5-(oxetan-3-yl)-1-(2-(pyridin-2-yl)-2-azaspiro[3.3]heptan-6-yl)-5,6-dihydro-4H-benzo[f][1,2,4]triazolo[4,3-a][1,4]diazepine]	> 1 µM	> 1 µM
COC(=O)N1Cc2cc(Cl)ccc2-n2c(C3CC4(C3)CN(c3ncccn3)C4)nnc2C1C (single isomer, unassigned) [Cpd 166A]	> 1 µM	> 1 µM

SMILES	IC50 [1]	IC50 [2]
CN1Cc2cc(Cl)ccc2-n2c(nnc2C2CC3(C2)CN(c2ccccn2)C3)C1 [compound 2]	> 1 µM	> 1 µM
CC1c2nnc(C3CC4(C3)CN(c3ncccn3)C4)n2-c2ccc(Cl)cc2CN1C(=O)OC1CC1 (single isomer, unassigned) [Cpd 171B]	> 1 µM	> 1 µM
CC(CF)N1Cc2cc(Cl)ccc2-n2c(nnc2C2CC3(C2)CN(c2ccccn2)C3)C1 (stereo not shown) [compound 58]	> 1 µM	0.5 to 1 µM
CC1c2nnc(C3CC4(C3)CN(c3ncccn3)C4)n2-c2ccc(Cl)cc2CN1C(=O)OC1CC1 (stereo not shown) [compound 171]	> 1 µM	> 1 µM
CC1c2nnc(C3CC4(C3)CN(c3ccc(F)cn3)C4)n2-c2ccc(Cl)cc2CN1C (single isomer, unassigned) [Cpd 179A]	> 1 µM	> 1 µM
COC(=O)N1Cc2cc(Cl)ccc2-n2c(nnc2C2CC3(C2)CN(c2ccccn2)C3)C1 [compound 70]	> 1 µM	0.1 to 0.5 µM
CC(C)C(=O)N1Cc2cc(Cl)ccc2-n2c(nnc2C2CC3(C2)CN(c2ccccn2)C3)C1 [compound 71]	> 1 µM	> 1 µM
CCOC(=O)N1Cc2cc(Cl)ccc2-n2c(C3CC4(C3)CN(c3ccc(F)cn3)C4)nnc2C1C (stereo not shown) [compound 169]	> 1 µM	> 1 µM
COC(=O)N1Cc2cc(Cl)ccc2-n2c(C3CC4(C3)CN(c3cccc(C)n3)C4)nnc2C1C (stereo not shown) [compound 180]	> 1 µM	0.1 to 0.5 µM
Clc1ccc2c(c1)CN(C1CCC1)Cc1nnc(C3CC4(C3)CN(c3ccccn3)C4)n1-2 [compound 41]	> 1 µM	< 0.1 µM
CC1c2nnc(C3CC4(C3)CN(c3ncc(F)cn3)C4)n2-c2ccc(Cl)cc2CN1C(=O)OC1CC1 (single isomer, unassigned) [Cpd 192A]	> 1 µM	> 1 µM
O=C(C(F)F)N1Cc2cc(Cl)ccc2-n2c(nnc2C2CC3(C2)CN(c2ccccn2)C3)C1 [compound 122]	> 1 µM	0.1 to 0.5 µM
FCCN1Cc2cc(Cl)ccc2-n2c(nnc2C2CC3(C2)CN(c2ccccn2)C3)C1 [compound 59]	> 1 µM	0.5 to 1 µM
CCC(=O)N1Cc2cc(Cl)ccc2-n2c(nnc2C2CC3(C2)CN(c2ccccn2)C3)C1 [compound 67]	> 1 µM	> 1 µM
CC(C)OC(=O)N1Cc2cc(Cl)ccc2-n2c(C3CC4(C3)CN(c3ncc(F)cn3)C4)nnc2C1C (single isomer, unassigned) [Cpd 201A]	> 1 µM	> 1 µM
CC(C)OC(=O)N1Cc2cc(Cl)ccc2-n2c(C3CC4(C3)CN(c3ncccn3)C4)nnc2C1C (single isomer, unassigned) [Cpd 167A]	> 1 µM	> 1 µM
CC1c2nnc(C3CC4(C3)CN(c3ncc(F)cn3)C4)n2-c2ccc(Cl)cc2CN1C(=O)OC1(C)CC1 (stereo not shown) [compound 173]	> 1 µM	> 1 µM
CCN1Cc2cc(Cl)ccc2-n2c(nnc2C2CC3(C2)CN(c2cnccn2)C3)C1 [compound 46]	> 1 µM	> 1 µM
CCOC(=O)N1Cc2cc(Cl)ccc2-n2c(nnc2C2CC3(C2)CN(c2ccc(F)cn2)C3)C1 [compound 69]	> 1 µM	0.1 to 0.5 µM
